One data set has as its system U87-MG cells. As to the kind of experiment: CellTiter-Glo cytotoxicity against U87-MG cells. In kind it is cell-based. The conditions noted are these: Homo sapiens, U-87 MG, 144 hours incubation, IC50 ± SD (n = 3). The protocol:
(§1) Apoptosis of glioma cells induced by TMZ, occurs at least 120 hours after treatment.[7] Consequently, cells were incubated for 144 hours with specified TMZ analogues in the in vitro investigations in order to obtain more reliable IC50 values.
(§2) 1321-N1 (human astrocytoma) was maintained in DMEM medium supplemented with 2 mM L-glutamine and 10% FBS. GOS-3, (human brain mixed astro-oligodendroglioma) was maintained in DMEM medium supplemented with 2 mM L-glutamine and 10% […]. U87-MG, (human glioblastoma) and SVGp12 (normal human astroglia) were maintained in EMEM medium supplemented with 2 mM L-glutamine, 1 mM sodium pyruvate and 10% FBS. All cell lines were incubated at 37 °C and 5% CO2 in a humidified incubator. Primary BTNW cultures were maintained in Ham's F10 nutrient mixture, containing 20 mM HEPES, 2 mM glutamine and 10% FBS. Primary cultures were incubated in a humidified incubator at 37 °C.
(§3) Cells were seeded in the appropriate media in each well of a Costar 96-well plate at a density of 5 × 10^2 immortalised cells; 2 × 10^3 (primary cells). The plates were incubated at 37 °C and 5% CO2 in a humidified incubator for 24 hours to allow cells to adhere. Each of the drugs tested were dissolved in DMSO to afford a 200 mM stock solution. The stock solutions were diluted with medium to afford the final working concentrations, ensuring DMSO concentration was no greater than 0.5% (v/v). Drug concentrations were added to the cells and incubated for 144 hours. After incubation, the drug concentrations were removed and replaced with 100 μL of CellTiter-Glo® and 100 μL of media. The luminescence of each well was measured on GENios Pro plate reader. The results for each of the drug concentrations were expressed as a percentage of the control wells. For cell lines, the regression equation for a polynomial line of best fit of order 2 was used to calculate the IC50. In the case of the in vitro model used in the present study, the IC50 was defined as the concentration of drug that results in a 50% reduction in oxyluciferin production. Primary culture cells were incubated with clinically relevant concentrations for 144 hours. Viability was expressed as a percentage of the control wells. Each experiment involving cell lines was carried out in triplicate of triplicates. Experiments using patient derived primary cultures were carried out in triplicate.
(§4) Initial screening of the 25 analogues was completed using the U87-MG cell line. The most promising analogues from the initial screening were taken forward and tested against the 1321-N1, GOS-3 and SVG-p12 cell lines. The results of all 4 cell lines were compiled and the analogues that were deemed to be the most promising drug candidates were tested against primary cultures at clinically relevant concentrations.

The subject of the next data set is 1321-N1. Nature of the data set: CellTiter-Glo cytotoxicity against 1321-N1 cells. In kind it is cell-based. As to conditions: Homo sapiens, 144 hours incubation, IC50 ± SD (n = 3). As for the experimental part: as §1, §2, §3, §4
In general terms: Cellular ATP, detected with luciferase, serves as a proxy for viable cell number.

Another data set has as its system GOS-3. As to the kind of experiment: CellTiter-Glo cytotoxicity against GOS-3 cells. In kind it is cell-based. The conditions noted are these: Homo sapiens; 144 hours incubation, IC50 ± SD (n = 3). The protocol:
as §1, §2, §3, §4

The subject of the next data set is SVGp12. Nature of the data set: CellTiter-Glo cytotoxicity against normal SVGp12 cell line. In kind it is cell-based. The conditions noted are these: Homo sapiens, 144 hours incubation, IC50 ± SD (n = 3). The protocol: as §1, §2, §3, §4
For another data set, the system named is BTNW914 (MGMT−). Nature of the data set: Cell viability of patient derived primary GBM culture BTNW914 (MGMT−). In kind it is cell-based, human. As to conditions: 6 days incubation; for IC50: Homo sapiens, 144 h, read-out: IC50 against MGMT devoid GBM primary cells; for reduction in viability against MGMT devoid GBM cells: at 75 μM. The protocol: (§5) Fig. 2 (A) Cell viability of BTNW914 (MGMT−) after treatment by TMZ and phenyl TMZ ester analogues at various clinically relevant concentrations and incubation for 6 days. (B) Cell Viability of BTNW374 (MGMT+) after treatment by TMZ and phenyl TMZ ester analogues at various clinically relevant concentrations. Values are reported as the percentage of viable cells ± SD, n = 3.
(§6) Cytotoxic evaluation of the analogues was completed against 4 cell lines and 2 primary GBM cultures. The human glioma cell lines, GOS-3, U87-MG and 1321-N1 along with the human astroglial cell line, SVGp12, were purchased from The European Collection of Cell Cultures (ECCAC, UK) and Deutsche Sammlung von Mikroorganismen und Zellkulturen (DMSZ, Germany). Patient derived primary GBM cultures, BTNW374 and BTNW914, were obtained from The Brain Tumour North West Tissue Bank in collaboration with The Royal Preston Hospital. Patient data for primary cells was included as part of the ESI. ^†
as §2, §3

For another data set, the system named is BTNW374 (MGMT+). Nature of the data set: Cell viability of patient derived primary GBM culture BTNW374 (MGMT+). In kind it is cell-based, human. The protocol:
as §5, §6, §2, §3

Data set [1] relates to porcine liver esterase (PLE). As to the kind of experiment: Stability of phenolic TMZ esters on exposure to porcine liver esterase. In kind it is in vitro ADME. The conditions noted are these: pH 6, 37 °C. The protocol:
The hydrolysis was monitored by the decrease in the peak area of the corresponding TMZ esters, however, due to sensitivity of the imidazotetrazine ring to pH, the experiments were carried out at pH 6 to avoid the formation of imidazoles. The validation of the analytical method also involved investigating the stability of the imidazotetrazine ring whilst ensuring PLE retained a significant level of activity.
A disodium phosphate, citric acid buffer (pH 6) was prepared by using disodium phosphate (Na2HPO4·12H2O, 200 mM) and citric acid (100 mM). A stock solution of 80 mg/100 mL of each of the TMZ esters (3h, 3i, 3j, 3k, 3l and 3n) were prepared in DMSO. The control reaction, without enzyme, was prepared by adding 3000 μL of buffer to the reaction vessel along with 56.25 μL of the stock solution. The test reaction, with enzyme, was prepared by adding 2999 μL of buffer to the reaction vessel along with 56.25 μL of TMZ ester. The final concentration of TMZ esters in the reaction vessels was 1.47 mg/100 mL. Porcine liver esterase (1 μL) was added to the test reaction at zero time (minutes). Both the control and test reactions were then incubated at 37 °C. Aliquots of 200 μL were transferred from the reaction vessels to 2 mL Eppendorf tubes, at 3 minute intervals for 30 minutes. The reaction was quenched by adding 200 μL of acetonitrile. […]

The conditions of data set [2]: cited from earlier work.
Where [3] appears, read: initial screening, CellTiter-Glo, read-out: IC50 against U87-MG cells.
The mark [4] stands for this setting: lead analogues (Table 2), read-out: IC50 U87-MG.

Where two headings read alike, the source gives them in different places.

Usually IC50 stands for the midpoint of a concentration-inhibition curve. The term melting point denotes the temperature of the solid-liquid transition. In turn, `Cn1nnc2c(C(=O)Oc3ccc(C#N)cc3)ncn2c1=O` [Analogue 3k, 4-Cyanophenyl 3-methyl-4-oxo-3,4-dihydroimidazo[5,1-d][1,2,3,5]tetrazine-8-carboxylate] returned a melting point of 192 °C. Besides, the half-inhibitory concentration (IC50) in the data set with U87-MG cells (setting [3]) is 138 ± 7 µM. Besides, in the data set on U87-MG cells (setting [4]), the half-maximal inhibitory concentration (IC50) came out at 137 ± 7 µM. For the same compound, the IC50 in the data set with 1321-N1 stood at 103 ± 7 µM. Further, the half-maximal inhibitory concentration (IC50) with GOS-3 was 151 ± 4 µM. The same compound registered an IC50 with SVGp12 of 36 ± 3 µM. The half-inhibitory concentration (IC50) in the data set on BTNW914 (MGMT−) was less than 15 µM. Further, the “cytotoxicity against MGMT positive patient derived primary culture” value (“cytotoxicity” for short) in the data set with BTNW374 (MGMT+) (human, 144 h, 75 μM) is given as “generated cytotoxicity at 75 μM”. Also, in [1], the “Time taken to hydrolyse 50% of the ester” value came out at 13.7 min.
Consider `Cn1nnc2c(C(N)=O)ncn2c1=O` [TMZ, 3-methyl-4-oxo-imidazo[5,1-d][1,2,3,5]tetrazine-8-carboxamide, reference compound], for which the IC50 with U87-MG cells (setting [3]) worked out at 696 ± 79 µM; in the data set with U87-MG cells (setting [4]) it was 621 ± 66 µM; in the data set on 1321-N1 it was 783 ± 40 µM; with GOS-3, 696 ± 16 µM; with SVGp12 it was 239 ± 6 µM. In addition, the “reduction of viability of MGMT devoid cells” value with BTNW914 (MGMT−) (at 15 and 75 μM) is on record as “approximately 20%”. Also, in the data set with BTNW374 (MGMT+) (BTNW374, clinically relevant concentrations up to 75 μM), the “cytotoxicity” value was “TMZ resistance”. Moreover, in [2], the brain-tumour concentration was 15 µM. Further, the “brain-tumour concentration as share of plasma concentration” value in [2] is given as “approximately 20%”. Besides, the “time frame of maximum intracranial concentration” value in data set [2] is on record as “approximately 2 ± 0.8 hours”.
The compound `Cn1nnc2c(C(=O)Oc3ccc([N+](=O)[O-])cc3)ncn2c1=O` [Analogue 3i, 4-Nitrophenyl 3-methyl-4-oxo-3,4-dihydroimidazo [5,1-d][1,2,3,5] tetrazine-8-carboxylate] displayed a melting point of 190 °C. In the data set on U87-MG cells (setting [3]), the IC50 came to 142 ± 3 µM. Moreover, in the data set with U87-MG cells (setting [4]), the IC50 turned out to be 141 ± 3 µM. The compound further showed a half-inhibitory concentration (IC50) with 1321-N1 of 104 ± 4 µM. This compound also registered an IC50 in the data set with GOS-3 of 91 ± 1 µM. In the data set on SVGp12, this compound came in with a half-maximal inhibitory concentration (IC50) of 39 ± 2 µM. Besides, the IC50 in the data set with BTNW914 (MGMT−) was less than 15 µM. The “cytotoxicity” value in the data set on BTNW374 (MGMT+) (human, 144 h, 75 μM) is reported as “generated cytotoxicity at 75 μM”.
For the compound `COc1ccc(OC(=O)c2ncn3c(=O)n(C)nnc23)cc1` [Analogue 3h, 4-Methoxyphenyl 3-methyl-4-oxo-3,4-dihydroimidazo [5,1-d][1,2,3,5] tetrazine-8-carboxylate], the melting point turned out to be 172 °C. In the data set on U87-MG cells (setting [3]), the IC50 was 134 ± 7 µM. The IC50 in the data set on U87-MG cells (setting [4]) is 134 ± 7 µM. The same compound had a half-inhibitory concentration (IC50) in the data set with 1321-N1 of 183 ± 1 µM. The same compound showed an IC50 in the data set on GOS-3 of 183 ± 5 µM. Also, the midpoint of inhibition in the data set with SVGp12, the IC50, lay at 44 ± 2 µM. In addition, in the data set on BTNW914 (MGMT−), the IC50 was less than 15 µM. Further, the “cytotoxicity” value in the data set with BTNW374 (MGMT+) (human, 144 h, 75 μM) was “generated cytotoxicity at 75 μM”. Further, the “Time taken to hydrolyse 50% of the ester” value in data set [1] is 7.3 min.
In turn, `Cn1nnc2c(C(=O)Oc3ccc(Cl)cc3)ncn2c1=O` [Analogue 3j, 4-Chlorophenyl 3-methyl-4-oxo-3,4-dihydroimidazo [5,1-d][1,2,3,5] tetrazine-8-carboxylate] yielded a melting point of 164 °C. For the same compound, in the data set with U87-MG cells (setting [3]), the half-inhibitory concentration (IC50) was 96 ± 3 µM. In the data set on U87-MG cells (setting [4]), the concentration for half-maximal inhibition (IC50) is 96 ± 3 µM. In the data set on 1321-N1, this compound came in with an IC50 of 118 ± 11 µM. For the same compound, the IC50 in the data set with GOS-3 amounted to 54 ± 4 µM. Further, the concentration for half-maximal inhibition (IC50) in the data set on SVGp12 came out at 33 ± 1 µM. Moreover, the IC50 with BTNW914 (MGMT−) is less than 15 µM. For the same compound, the “cytotoxicity” value in the data set on BTNW374 (MGMT+) (human, 144 h, 75 μM) is listed as “generated cytotoxicity at 75 μM”.
As to `Cn1nnc2c(C(=O)Oc3ccccc3)ncn2c1=O` [Analogue 3l, Phenyl 3-methyl-4-oxo-3,4-dihydroimidazo[5,1-d][1,2,3,5]tetrazine-8-carboxylate], the melting point came out at 149 °C. Also, the IC50 in the data set on U87-MG cells (setting [3]) stood at 331 ± 47 µM. Moreover, the IC50 in the data set on U87-MG cells (setting [4]) amounted to 330 ± 47 µM. Besides, in the data set on 1321-N1, 511 ± 10 µM corresponded to half-maximal inhibition (IC50). For the same compound, the IC50 in the data set with GOS-3 is 691 ± 35 µM. Further, it took 238 ± 6 µM to reach half-maximal inhibition in the data set with SVGp12 (IC50). Besides, in the data set on BTNW914 (MGMT−), the “reduction in viability against MGMT devoid GBM cells” value was “greater than 50%”.
As for `Cc1ccc(OC(=O)c2ncn3c(=O)n(C)nnc23)cc1` [Analogue 3n, p-Tolyl 3-methyl-4-oxo-3,4-dihydroimidazo[5,1-d][1,2,3,5]tetrazine-8-carboxylate], the melting point was found to be 164 °C. The half-maximal inhibitory concentration (IC50) with U87-MG cells (setting [3]) was 376 ± 62 µM. In addition, the IC50 with U87-MG cells (setting [4]) came to 376 ± 62 µM. In the data set with 1321-N1, it took 238 ± 8 µM to reach half-maximal inhibition (IC50). The compound also gave a half-maximal inhibitory concentration (IC50) in the data set on GOS-3 of 314 ± 38 µM. Also, the half-maximal inhibitory concentration (IC50) in the data set with SVGp12 is 215 ± 26 µM. The “reduction in viability against MGMT devoid GBM cells” value in the data set on BTNW914 (MGMT−) is given as “greater than 50%”. In addition, the “cytotoxicity” value with BTNW374 (MGMT+) (human, 144 h, 75 μM) was “generated cytotoxicity at 75 μM”.
